Experimental data taken from US20250049831A1, “ANTIVIRAL USE OF BISE[…], AND BISEPOXYLIGNAN COMPOSITION AND PREPARATION OF BISE[…]” (priority 2021, published 2025).

Tests used:
[1] = tested on: COVID-19 virus Delta variant; assay type: cell-based
[2] = tested on: COVID-19 virus Beta variant; assay type: cell-based

COc1cc(O)cc(C2OCC3C(c4ccc(OC5OC(CO)C(O)C(O)C5O)c(OC)c4)OCC23)c1 (centres unmarked) [compound 1]
COVID-19 Delta virus SI [1]: 7.14
COVID-19 Beta virus SI [2]: 7.64

COc1ccc([C@H]2OC[C@H]3[C@@H]2CO[C@H]3c2ccc(O[C@@H]3O[C@H](CO)[C@@H](O)[C@H](O)[C@H]3O)c(OC)c2)cc1OC [compound 2]
COVID-19 Delta virus SI [1]: 6.86
COVID-19 Beta virus SI [2]: 7.10

COc1ccc(C2OCC3C(c4ccc(OC)c(OC)c4)OCC23)cc1O (centres unmarked) [compound 3]
COVID-19 Delta virus SI [1]: 2.11
COVID-19 Beta virus SI [2]: 2.12

COc1ccc(C2OCC3C(c4ccc(OC(=O)C(C)c5ccc(CC(C)C)cc5)c(OC)c4)OCC23)cc1OC (centres unmarked) [compound 6]
COVID-19 Delta virus SI [1]: 1.79
COVID-19 Beta virus SI [2]: 3.43
